Consider 11 molecules from patent US11982671B2, “Identification of a T cell epitope of Prevotella copri that induces T cell responses in patients with rheumatoid arthritis” (priority 2016, dated 2024).

Experiment [1] has as its system PBMC from RA patients. Nature of the experiment: IFN-γ/IL17 Double-Color ELISpot with GNS, FLNA and microbial peptides. The format is cell-based, human. The conditions noted are these: 24 NORA patients, single peptide 1 μM. On the procedure:
Enzyme-linked immunospot (ELISpot) T cell assay. A detailed description of the methods for isolation and identification of HLA-DR presented peptides is given in previous publications (19, 20). In the current study, all non-redundant HLA-DR-presented peptides identified from patient RA1 were synthesized (Mimotopes, Australia) and tested for reactivity in sets of 3 (1 μM of each peptide) with the patient's PBMC using IFN-γ ELISpot assays. […] For testing in larger numbers of patients and control subjects who would have a range of HLA-DR genotypes, the original peptides identified from the patient (shown in bold) and 3 additional promiscuous peptides that were predicted to bind>16 HLA-DR molecules were synthesized and HPLC-purified in the MGH Core Facility. The sequences of the GNS peptides were as follows: 47PNVVLLLTDDQDE59 (SEQ ID NO: 13), 222FEPFFMMIATPAPH235 (SEQ ID NO: 14), 451TYACVRTMSALWNLQ465 (SEQ ID NO: 15), 504NYRLMMLQSCSGPTC518 (SEQ ID NO: 16). The sequences of the FLNA peptides were as follows: 73DGLRLIALLEVLSQKK88 (SEQ ID NO: 17), 118SIKLVSIDSKAIVDG132 (SEQ ID NO: 18), 416VEVVIQDPMGQKG428 (SEQ ID NO: 19), 2446NPAEFVVNTSNAGAG2460 (SEQ ID NO: 20).
To assess microbial sequence homology with the GNS peptide 222FEPFFMMIATPAPH235 (SEQ ID NO: 21), the following microbial peptides were tested: 231KKPFFMMVAMNPPH245 (SEQ ID NO: 22), which was derived from the arylsulfatase protein of Prevotella sp. (WP_062433009.1) and 247DVPFFMMWTTPLPH261 (SEQ ID NO: 23), derived from the N-acetylgalactosamine-6-sulfatase of Parabacteroides sp. (WP_046148720.1).
To evaluate the microbial sequence homology for the FLNA peptide 2446NPAEFVVNTSNAGAG2460 (SEQ ID NO: 24), the following microbial peptides were tested: 133QGFVVKTANAGAL146 (SEQ ID NO: 25), which was derived from an uncharacterized protein of Prevotella sp. (WP_028897633.1) and 90ANFMINVSNAGAL103 (SEQ ID NO: 26), derived from an uncharacterized protein of Butyricimonas sp. (WP_065219401.1). The RA patients' PBMC were stimulated with the pool of peptides or single peptides, and analyzed for reactivity with a human IFN-γ/IL17 Double-Color ELISpot kit (Cellular Technology Limited). All peptides (1 μM) were tested in duplicate wells, as were positive (phytohemagglutinin) and negative (no antigen) control samples. After 5 days, cells were transferred to ELISpot plates coated with IFN-γ/IL17 antibodies, and incubated overnight. Images of wells were captured using ImmunoSpot series 3B analyzer, and spots were counted using ImmunoSpot software. A positive T cell response was defined as 3 standard deviations (SD) above the mean value of healthy control subjects.

Experiment [2] relates to PBMC from RA patients. Kind of experiment: IFN-γ/IL-17 ELISpot T cell assay with Pc-p27 peptides. The format is cell-based, human. From the text:
Enzyme-linked immunospot (ELISpot) T cell assay. A detailed description of the methods for isolation and identification of HLA-DR presented peptides is given in Seward et al., 2011. In initial experiments in this study, one microbial peptide (^2KRIILILTVLLAMLGQVAY^20)(SEQ ID NO: 6) derived from a 27 kDa P. copri protein (WP_022121928.1) was identified from the PBMC of one RA patient. This P. copri peptide and 2 additional peptides from the same protein, which were predicted to be promiscuous T cell epitopes (^52DYRGYWTMRYQFDSATVS^69 (SEQ ID NO: 7), ^118EKINSLPTSSTGI^130 (SEQ ID NO: 8)), were synthesized and HPLC-purified in the Core Proteomics Laboratory at MGH. […] Cells were then transferred to Dual Color ELISpot plates coated with IFN-γ/IL17 antibodies (Cellular Technology Limited), and incubated overnight at 37° C. Images of wells were captured using ImmunoSpot series 3B analyzer, and spots were counted using ImmunoSpot software. A positive T cell response was defined as 3 standard deviations (SD) above the mean value of healthy subjects.

In experiment [3] the test system is serum IgG and IgA autoantibodies. Nature of the experiment: ELISA for serum IgG and IgA anti-GNS and anti-FLNA autoantibodies. The format is binding, human. The conditions noted are these: for patients with IgA antibody responses >3 SD above HC: 101 RA patients; for patients with IgG antibody responses >3 SD above HC: 101 RA patients (NORA and CRA), serum diluted 50-fold; for IgG antibody responses to citrullinated versus uncitrullinated protein: 46 RA patients, protein citrullinated in vitro with rhPAD4. On the procedure:
ELISA for serum IgG and IgA anti-GNS and anti-FLNA autoantibodies. ELISA plates were coated with 0.5 μg/ml of recombinant human N-acetylglucosamine-6-sulfatase (Novoprotein, Summit, N.J.) or filamin A (Novusbio, Littleton, Colo.) overnight at 4° C. Subsequent incubations and washes were performed at room temperature. After washing with phosphate buffered saline with 0.05% Tween-20 (PBST), the plates were blocked with blocking buffer (5% nonfat dry milk in PBST) for one hour. Afterwards, 100 μl of each patient's serum sample (diluted 50-fold) was added in duplicate wells for 1.5 hours, followed by horseradish-peroxidase (HRP)-conjugated goat anti-human IgG (sc-2453, Santa Cruz Biotech) or HRP-conjugated goat anti-human IgA (Bio-Rad, Hercules, Calif.), and then TMB substrate (BD, San Diego, Calif.). For inter-plate standardization, 2 control samples were included with each assay.
In vitro citrullination assay. Human recombinant N-acetylglucosamine-6-sulfatase (2 μg) or filamin A (2 μg) were incubated with rhPAD-4 (400 ng), generously provided by Maximilian Koenig from the laboratory of Felipe Andrade, in 1M Tris (pH 7.6) in presence of 200 mM CaCl2. A negative control reaction was performed substituting 200 mM CaCl2 with 200 mM EDTA. Incubation was performed at 37° C. for 3 hours. Protein citrullination was determined by anti-modified citrulline immunoblotting, according to the recommendations of the manufacturer (Millipore).

Consider “ANFMINVSNAGAL (Butyricimonas sp. Marseille-P2440) [Butyricimonas peptide, peptide from an uncharacterized protein of Butyricimonas sp]”, for which the “patients with T cell reactivity >3SD above the mean values in HC” value in experiment [1] stood at 29%.
The same measure, in the same setting: the result for “DVPFFMMWTTPLPH (Parabacteroides sp. HGS0025) [Parabacteroides peptide, peptide from N-acetylgalactosamine-6-sulfatase of Parabacteroides sp]” reads 25%; that for “FEPFFMMIATPAPH (listed as Homo sapiens) [GNS peptide, HLA-DR-presented self peptide from N-acetylglucosamine-6-sulfatase]”, 33%; that for “KKPFFMMVAMNPPH (Prevotella sp. DNF00663) [Prevotella peptide, peptide from arylsulfatase protein of Prevotella sp., homologous to the GNS peptide]”, 38%.
In the case of “KRIILILTVLLAMLGQVAY (listed as Prevotella copri) [Pc-p27 peptide 1]”, in experiment [2] (40 RA patients (39 NORA + RA1), peptide 1 μM, 5 days), the “patients whose PBMC secreted IFN-γ >3 SD above the mean value of HC” value is given as 42%. For the same molecule, in experiment [2] (LA patients, peptide 1 μM), the “T cell reactivity of PBMC from Lyme arthritis patients” value is “lacked reactivity”. In addition, in experiment [2] (RA patients, FIG. 1D), the “patients with IFN-γ response, peptide with or without citrullination” value is 44%. In addition, in experiment [2] (patient RA1 PBMC, peptide 1, 2 and 4 μM, background = no antigen), the “IFN-γ secreted by patient RA1 T cells relative to background” value is more than 3 times background.
NPAEFVVNTSNAGAG [FLNA peptide]: the “patients with T cell reactivity >3SD above the mean values in HC” value in experiment [1] amounted to 38%.
On the same count and under the same terms, to “QGFVVKTANAGAL (Prevotella sp. HUN102) [corresponding Prevotella peptide, peptide from an uncharacterized protein of Prevotella sp., homologous to the FLNA peptide]” belongs 42%.

B1: FLNA: recombinant human filamin A (Novusbio) (protein)
chain: GAPGPGPADASKVVAKGLGLSKAYVGQKSSFTVDCSKAGNNMLLVGVHGPRTPCEEILVKHVGSRLYSVSYLLKDKGEYTLVVKWGDEHIPGSPYRVVVP
B1: in experiment [3], the “patients with IgA antibody responses >3 SD above HC” value is on record as 15% and the “patients with IgG antibody responses >3 SD above HC” value is given as 27%.

B2: citrullinated FLNA: recombinant filamin A citrullinated in vitro with rhPAD-4 (protein)
chain: GAPGPGPADASKVVAKGLGLSKAYVGQKSSFTVDCSKAGNNMLLVGVHGPRTPCEEILVKHVGSRLYSVSYLLKDKGEYTLVVKWGDEHIPGSPYRVVVP
Consider B2, for which, in experiment [3], the “IgG antibody responses to citrullinated versus uncitrullinated protein” value was “not significantly different”.

B3: GNS: recombinant human N-acetylglucosamine-6-sulfatase (Novoprotein) (protein)
chain: VFGVAAGTRRPNVVLLLTDDQDEVLGGMTPLKKTKALIGEMGMTFSSAYVPSALCCPSRASILTGKYPHNHHVVNNTLEGNCSSKSWQKIQEPNTFPAILRSMCGYQTFFAGKYLNEYGAPDAGGLEHVPLGWSYWYALEKNSKYYNYTLSINGKARKHGENYSVDYLTDVLANVSLDFLDYKSNFEPFFMMIATPAPHSPWTAAPQYQKAFQNVFAPRNKNFNIHGTNKHWLIRQAKTPMTNSSIQFLDNAFRKRWQTLLSVDDLVEKLVKRLEFTGELNNTYIFYTSDNGYHTGQFSLPIDKRQLYEFDIKVPLLVRGPGIKPNQTSKMLVANIDLGPTILDIAGYDLNKTQMDGMSLLPILRGASNLTWRSDVLVEYQGEGRNVTDPTCPSLSPGVSQCFPDCVCEDAYNNTYACVRTMSALWNLQYCEFDDQEVFVEVYNLTADPDQITNIAKTIDPELLGKMNYRLMMLQSCSGPTCRTPGVFDPGYRFDPRLMFSNRGSVRTRRFSKHLL
As to B3, in experiment [3], the “patients with IgA antibody responses >3 SD above HC” value was 16% and the “patients with IgG antibody responses >3 SD above HC” value worked out at 32%. Further, the “positive IgG antibody responses in patients with other diseases and healthy controls” value in experiment [3] (106 patients with LA, SpA or CTD, 50 healthy control subjects) is on record as “none”.

B4: citrullinated GNS: recombinant GNS citrullinated in vitro with rhPAD-4 (protein)
chain: VFGVAAGTRRPNVVLLLTDDQDEVLGGMTPLKKTKALIGEMGMTFSSAYVPSALCCPSRASILTGKYPHNHHVVNNTLEGNCSSKSWQKIQEPNTFPAILRSMCGYQTFFAGKYLNEYGAPDAGGLEHVPLGWSYWYALEKNSKYYNYTLSINGKARKHGENYSVDYLTDVLANVSLDFLDYKSNFEPFFMMIATPAPHSPWTAAPQYQKAFQNVFAPRNKNFNIHGTNKHWLIRQAKTPMTNSSIQFLDNAFRKRWQTLLSVDDLVEKLVKRLEFTGELNNTYIFYTSDNGYHTGQFSLPIDKRQLYEFDIKVPLLVRGPGIKPNQTSKMLVANIDLGPTILDIAGYDLNKTQMDGMSLLPILRGASNLTWRSDVLVEYQGEGRNVTDPTCPSLSPGVSQCFPDCVCEDAYNNTYACVRTMSALWNLQYCEFDDQEVFVEVYNLTADPDQITNIAKTIDPELLGKMNYRLMMLQSCSGPTCRTPGVFDPGYRFDPRLMFSNRGSVRTRRFSKHLL
Regarding B4, the “IgG antibody responses to citrullinated versus uncitrullinated protein” value in experiment [3] is given as “higher”.
